Where only a bound is given, the exact number is not on record here.

Data set [1] is described as follows: in vitro. The note with it: human. It is filed as cell-based. From the text: Nevertheless, the involvement of a sigma-2 receptor-mediated effect was ruled out by the detection of a low density of sigma-2 receptors in A549 cells (data not shown). […].
Data set [2] has as its system A549/DX. As to the kind of experiment: Intracellular total ROS production in A549/DX (DCFDA-AM). Type of data set: cell-based, human. The note with it: for Intracellular ROS production with cis-Pt: 10 μM + 25 μM cis-Pt; for Intracellular ROS production with cis-Pt / Intracellular ROS production, compound alone: 24 h; for Intracellular ROS production, compound alone / Intracellular ROS production with ROS scavenger Tempol: 10 μM; for Intracellular ROS production with ROS scavenger Tempol: with 10 mM Tempol. From the text: One of the possible reasons of this sensitization is the ability of these three compounds to inhibit the efflux of cis-Pt, which is MRP1-mediated. […] This could be associated with a second reason, considering one of the putative mechanisms of CS consisting of an increased production of ROS, capable of triggering the apoptosis of MDR cells. To investigate whether this mechanism is involved in the sensitizing effects elicited by F397, F400, and F421, we measured the intracellular ROS production in A549/DX after 24 h treatment with these three molecules at 10 μM, with and without 25 μM cis-Pt (Figure 5A). […] Moreover, to verify whether the increase in ROS induced the reduction in cell viability elicited by the compounds, we evaluated the antiproliferative effect at 72 h of these three sensitizers alone and with 25 μM cis-Pt, adding 10 mM Tempol at time zero and after 48 h from the incubation.
Here, 1 × 10^6 whole cells were re-suspended in a final volume of 0.5 mL PBS and incubated for 30 min at 37 °C with 5 μM of the fluorescent probe 5-(and-6)-chloromethyl-2’,7’-dichlorodihydro-fluorescein diacetate-acetoxymethyl ester (DCFDA-AM, Sigma Chemicals Co.) in the dark. Cells were then centrifuged at 13,000× g at 37 °C and re-suspended in 0.5 mL PBS. The fluorescence of each sample, considered as the index of ROS levels, was read at 492 (λ excitation) and 517 nm (λ emission) using a Synergy HT Multi-Mode Microplate Reader (Bio-Tek Instruments). The results were expressed as nmol total ROS/mg cell proteins. A preliminary titration curve was set up by incubating the cells for 1 h with the cells treated with serial dilutions (10–0.01 nM) of the pro-oxidant agent menadione.

The subject of data set [3] is A549/DX cells. The experiment in a line: In vivo tumor growth of A549/DX xenografts. Set-up: species or system nu/nu BALB/C mice. The following applies: for Tumor growth, single agent: A549/DX xenografts in nu/nu BALB/C mice, 750 nmoles i.p. on day 1, 7, 14; for Tumor growth, co-administration with MK571 / Tumor growth, co-administration with cis-Pt: A549/DX xenografts; for Tumor growth, co-administration with MK571: 750 nmoles + 3 mg/kg MK571 i.p.; for Tumor growth, co-administration with cis-Pt: 750 nmoles + 50 mg/kg cis-Pt i.p. As for the experimental part: In order to translate in vivo the capability of F397, F400, and F421 to act as “sensitizers”, A549/DX cells were implanted in immune-deficient BALB/C mice, and once the tumor reached the volume of 50 mm^3, the mice were randomized and treated […] with the vehicle (saline solution) and/or cis-Pt.
(§1) Here, 1 × 10^6 A549/DX cells were mixed with 100 μl Matrigel implanted in 6-week-old female nu/nu BALB/C mice (Charles River Laboratories Italia, Calco, Italy), housed (5 per cage) under 12 h light/dark cycle, with food and drinking provided ad libitum. Tumor growth was measured daily by caliper, according to the equation (LxW2)/2, where L = tumor length and W = tumor width. When the tumor reached the volume of 50 mm^3, mice (n = 8/group) were randomized and treated as reported in the following groups, treated on day 1, 7, and 14 after randomization: (1) vehicle group (ctrl), treated intraperitoneally (i.p.) with 100 µL saline solution; (2) cis-Pt group, treated i.p. with 50 mg/kg cis-Pt, dissolved in 100 µL water/10% DMSO solution, according to Kopecka et al., 2015 [53]; (3) F397 group, treated i.p. with 750 nmoles of the compound, dissolved in 100 µL water/10% DMSO solution, corresponding to the maximum tolerated dose (not shown and Table 2); (4) F421 group, treated i.p. with 750 nmoles of the compound, dissolved in 100 µL water/10% DMSO solution i.p, corresponding to the maximum tolerated dose (not shown and Table 2); (5) cis-Pt/F397 group, treated i.p. with 50 mg/kg Cis-Pt and 750 nmoles of F397; (6) cis-Pt/F421 group, treated i.p. with 50 mg/kg cis-Pt and 750 nmoles of F421; (7) MK571 group, treated i.p. with 3 mg/kg MK571 dissolved in 100 µL water/10% DMSO solution, according to Jones et al., 1989 [56]; (8) MK571/F397 group, treated i.p. with 3 mg/kg MK571 and 750 nmoles of F397; (9) MK571/F421 group, treated i.p. with 3 mg/kg MK571 and 750 nmoles of F421. Tumor volumes were monitored daily. Animals were euthanized at day 21 after randomization with zolazepam (0.2 mL/kg) and xylazine (16 mg/kg). Lactate dehydrogenase (LDH), aspartate aminotransferase (AST), alanine aminotransferase (ALT), alkaline phosphatase (AP), creatinine, and creatine phosphokinase (CPK) were measured on blood samples collected immediately after euthanasia, using commercially available kits from Beckman Coulter Inc. (Beckman Coulter, Miami, FL, USA).

Data set [4] in a line: Hemato-chemical parameters and tolerability in treated mice. Type of data set: in vivo. Also on record: Creatinine: unit not given here. The following applies: for ALT / AP / AST / CPK / Creatinine / LDH: blood after euthanasia day 21, i.p. treatment day 1, 7, 14, means ± SD, n = 8; for Maximum tolerated dose: i.p., in 100 µL water/10% DMSO, mice (not shown). As for the experimental part: as §1

Data set [5] relates to MCF7 cell line. Also on record: method as in PMID 24106081. The following applies: MCF7 cells; read-out: EC50, cytotoxicity in MCF7; cited from earlier work.
Data set [6] deals with P-gp. Also on record: method as in PMID 24106081. The following applies: MCF7 cell line; read-out: EC50, P-gp inhibition; cited from earlier work.
The test system of data set [7] is MCF7/DX. Also on record: method as in PMID 24106081. The following applies: resistant MCF7/DX overexpressing P-gp; read-out: EC50, cytotoxic activity in MCF7/DX; cited from earlier work.
Data set [8] can be described thus: Solubility in solvents suitable for in vivo studies. Type of data set: physicochemical. From the text: Of note, the dose of F397 and F421 effective as an anti-tumor agent in vivo was lower than the dosage effective as an anti-proliferative agent in vitro. One possible reason could be that part of the anti-tumor effect of the compounds was mediated by their activity on the tumor microenvironment, not necessarily only on tumor cells. This aspect cannot be evaluated in the viability assays performed in vitro and could lead to an underestimation of the compounds’ potency. Further, the repeated administration of F397 and F421 followed in vivo instead of the single dosage used in vitro can be an additional explanation. […] This could also be the case of F397 and F421 against A549/DX tumors. […] It is also worth noting that the treatment was not toxic for liver, heart, and kidney compared with the control, as shown from the hemato-chemical parameters of the animals (Table 2).

In the case of `COc1ccc(CNCCCCc2cn(-c3ccc(F)cc3)c3ccccc23)cc1OC` [F421, N-{4-[1-(4-fluorophenyl)-1H-indol-3-yl]butyl}-3,4-dimethoxybenzylamine], in data set [1], the EC50 was > 100 µM. Also, in data set [2], the “Intracellular ROS production with cis-Pt” value is “further enhanced when they were co-administrated with the antineoplastic drug”; the “Intracellular ROS production, compound alone” value is on record as “increased the amount of intracellular ROS”; the “Intracellular ROS production with ROS scavenger Tempol” value is listed as “reverted by the ROS scavenger Tempol”. Besides, in data set [3], the “Tumor growth, single agent” value is “low growth reduction”; the “Tumor growth, co-administration with MK571” value was “abated the cytotoxic effect”; the “Tumor growth, co-administration with cis-Pt” value is recorded as “greatly reduced tumor growth”. In data set [4], this compound displayed an ALT of 33 ± 13 U/L, an AP of 143 ± 34 U/L, an AST of 82 ± 37 U/L and a CPK of 321 ± 72 U/L. Moreover, in data set [4], the Creatinine amounted to 0.045 ± 0.011, the LDH amounted to 7182 ± 892 U/L and the Maximum tolerated dose is 750 nmol.
On to `COc1cc2c(cc1OC)CN(CCCCc1cn(-c3ccc(F)cc3)c3ccccc13)CC2` [F397, 6,7-dimethoxy-2-{4-[1-(4-fluorophenyl)-1H-indol-3-yl]butyl}-1,2,3,4-tetrahydroisoquinoline], for which, in data set [2], the “Intracellular ROS production with cis-Pt” value was “further enhanced when they were co-administrated with the antineoplastic drug”; the “Intracellular ROS production, compound alone” value is “increased the amount of intracellular ROS”; the “Intracellular ROS production with ROS scavenger Tempol” value is given as “reverted by the ROS scavenger Tempol”. For the same compound, in data set [3], the “Tumor growth, single agent” value is on record as “low growth reduction”; the “Tumor growth, co-administration with MK571” value was “abated the cytotoxic effect”; the “Tumor growth, co-administration with cis-Pt” value is “greatly reduced tumor growth”. In data set [4], this compound returned an ALT of 37 ± 108 U/L, an AP of 112 ± 32 U/L, an AST of 81 ± 24 U/L and a CPK of 324 ± 72 U/L. In data set [4], this compound had a Creatinine of 0.043 ± 0.009, an LDH of 6729 ± 492 U/L and a Maximum tolerated dose of 750 nmol. Also, in data set [5], the EC50 was 17.8 µM. In addition, the EC50 in data set [6] was 0.21 µM. In data set [7], the EC50 was 21.8 µM.
For `COc1cc2c(cc1OC)CN(C(=O)CCC1CCCc3c(OC)cccc31)CC2` (centres unmarked) [F400, 6,7-dimethoxy-2-[3-(5-methoxy-1,2,3,4-tetrahydronaphthalen-1-yl)propionyl]-1,2,3,4 tetrahydroisoquinoline], the EC50 in data set [1] is > 100 µM. In addition, in data set [2], the “Intracellular ROS production with cis-Pt” value is reported as “further enhanced when they were co-administrated with the antineoplastic drug”; the “Intracellular ROS production, compound alone” value is reported as “increased the amount of intracellular ROS”; the “Intracellular ROS production with ROS scavenger Tempol” value is “reverted by the ROS scavenger Tempol”. Besides, the “Solubility in solvents suitable for in vivo studies” value in data set [8] is “could not be dissolved in solvents suitable for in vivo studies”.

The values are drawn from PMC7247425, “MRP1-Collateral Sensitizers as a Novel Therapeutic Approach in Resistant Cancer Therapy: An In Vitro and In Vivo Study in Lung Resistant Tumor” (International Journal of Molecular Sciences, 2020).
